Laboratory results reported in ChEMBL document CHEMBL1201862, “PubChem BioAssay data set” (2004).
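A five-concentration, 48-hour dose response in 96-well plates underlies each endpoint, interpolated linearly between surrounding concentrations. Here, GI50 denotes the concentration required for 50% inhibition of growth.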 The source made the active and inactive calls. No stated cut-off is given here; in the data, active = GI50 up to about 1.1 µM and inactive = higher.

Tests used:
Assay in all cases: growth of human tumour cells (NCI), 48 h
NCI-H23 = tested on: NCI-H23
SF-268 = tested on: SF-268
NCI-H226 = tested on: NCI-H226
MDA-N = tested on: MDA-N
MDA-MB-231 = tested on: MDA-MB-231
MDA-MB-435 = tested on: MDA-MB-435
HCC 2998 = tested on: HCC 2998
SR = tested on: SR
LOX IMVI = tested on: LOX IMVI
NCI/ADR-RES = tested on: NCI/ADR-RES
SNB-75 = tested on: SNB-75
HL-60 = tested on: HL-60
OVCAR-5 = tested on: OVCAR-5
SF-539 = tested on: SF-539
OVCAR-4 = tested on: OVCAR-4
UO-31 = tested on: UO-31
UACC-257 = tested on: UACC-257
SNB-19 = tested on: SNB-19
K562 = tested on: K562
CAKI-1 = tested on: CAKI-1

## NC(=S)N1N=C2c3ccccc3CCC[C@H]2[C@@H]1c1ccccc1
NCI-H23
  GI50: 1.84 µM (inactive)
SF-268
  GI50: 3 µM (inactive)
NCI-H226
  GI50: 2.6 µM (inactive)
MDA-N
  GI50: 0.0531 µM (active)
MDA-MB-231
  GI50: 0.513 µM (active)
MDA-MB-435
  GI50: 0.0977 µM (active)
HCC 2998
  GI50: 1.99 µM (inactive)
SR
  GI50: 0.249 µM (active)
LOX IMVI
  GI50: 1.59 µM (inactive)
NCI/ADR-RES
  GI50: 0.348 µM (active)
SNB-75
  GI50: 0.211 µM (active)
HL-60
  GI50: 0.589 µM (active)
OVCAR-5
  GI50: 9.57 µM (inactive)
SF-539
  GI50: 0.518 µM (active)
OVCAR-4
  GI50: 5 µM (inactive)
UO-31
  GI50: 1.9 µM (inactive)
UACC-257
  GI50: 2.21 µM (inactive)
SNB-19
  GI50: 1.37 µM (inactive)
K562
  GI50: 0.284 µM (active)

## COc1cc(/C=N/N=C2NCCN2)ccc1O
NCI-H23
  GI50: > 100 µM (inactive)
SF-268
  GI50: > 100 µM (inactive)
NCI-H226
  GI50: > 100 µM (inactive)
MDA-N
  GI50: > 100 µM (inactive)
MDA-MB-231
  GI50: > 100 µM (inactive)
MDA-MB-435
  GI50: > 100 µM (inactive)
HCC 2998
  GI50: > 100 µM (inactive)
SR
  GI50: > 100 µM (inactive)
LOX IMVI
  GI50: > 100 µM (inactive)
NCI/ADR-RES
  GI50: > 100 µM (inactive)
SNB-75
  GI50: > 100 µM (inactive)
HL-60
  GI50: > 100 µM (inactive)
OVCAR-5
  GI50: > 100 µM (inactive)
SF-539
  GI50: > 100 µM (inactive)
OVCAR-4
  GI50: > 100 µM (inactive)
UO-31
  GI50: > 100 µM (inactive)
UACC-257
  GI50: > 100 µM (inactive)
SNB-19
  GI50: > 100 µM (inactive)
K562
  GI50: > 100 µM (inactive)

## O=C(NC(=S)Nc1ccc(Br)cc1)c1ccc2c(c1)Sc1ccccc1S2
NCI-H23
  GI50: 21.5 µM (inactive)
SF-268
  GI50: 21.9 µM (inactive)
NCI-H226
  GI50: 23.4 µM (inactive)
MDA-N
  GI50: 28.9 µM (inactive)
MDA-MB-231
  GI50: 17.6 µM (inactive)
MDA-MB-435
  GI50: 94.4 µM (inactive)
SR
  GI50: 17.3 µM (inactive)
LOX IMVI
  GI50: 23.3 µM (inactive)
NCI/ADR-RES
  GI50: 24.2 µM (inactive)
SNB-75
  GI50: 15 µM (inactive)
HL-60
  GI50: 17.5 µM (inactive)
OVCAR-5
  GI50: 20.6 µM (inactive)
SF-539
  GI50: 24.3 µM (inactive)
CAKI-1
  GI50: 20.1 µM (inactive)
OVCAR-4
  GI50: 19.2 µM (inactive)
UO-31
  GI50: 12.9 µM (inactive)
UACC-257
  GI50: 21.7 µM (inactive)
SNB-19
  GI50: 25.2 µM (inactive)
K562
  GI50: 9.04 µM (inactive)

## C=C(C)[C@H]1C[C@@H]2O[C@@](O)(/C(C)=C\C(=O)/C=C(/C)C[C@H]3OC(=O)[C@@]24O[C@H]34)[C@@H]1O
SF-268
  GI50: > 100 µM (inactive)
NCI-H226
  GI50: > 100 µM (inactive)
MDA-N
  GI50: > 100 µM (inactive)
MDA-MB-231
  GI50: > 100 µM (inactive)
MDA-MB-435
  GI50: > 100 µM (inactive)
HCC 2998
  GI50: > 100 µM (inactive)
SR
  GI50: 47.4 µM (inactive)
LOX IMVI
  GI50: > 100 µM (inactive)
NCI/ADR-RES
  GI50: > 100 µM (inactive)
SNB-75
  GI50: > 100 µM (inactive)
HL-60
  GI50: > 100 µM (inactive)
OVCAR-5
  GI50: > 100 µM (inactive)
SF-539
  GI50: > 100 µM (inactive)
CAKI-1
  GI50: > 100 µM (inactive)
OVCAR-4
  GI50: > 100 µM (inactive)
UACC-257
  GI50: > 100 µM (inactive)
SNB-19
  GI50: > 100 µM (inactive)
K562
  GI50: > 100 µM (inactive)

## Cc1ccc(S(=O)(=O)N(CC(O)COc2ccccc2)c2ccc(F)cc2F)cc1 (centres undefined)
NCI-H23
  GI50: 13.9 µM (inactive)
SF-268
  GI50: 15.3 µM (inactive)
NCI-H226
  GI50: 18.8 µM (inactive)
MDA-N
  GI50: 15.5 µM (inactive)
MDA-MB-231
  GI50: 17.4 µM (inactive)
MDA-MB-435
  GI50: 16.1 µM (inactive)
HCC 2998
  GI50: 14.1 µM (inactive)
SR
  GI50: 22.5 µM (inactive)
LOX IMVI
  GI50: 14.2 µM (inactive)
NCI/ADR-RES
  GI50: 15.9 µM (inactive)
SNB-75
  GI50: 14.8 µM (inactive)
HL-60
  GI50: 15.7 µM (inactive)
OVCAR-5
  GI50: 18.1 µM (inactive)
SF-539
  GI50: 16.4 µM (inactive)
CAKI-1
  GI50: 12.2 µM (inactive)
OVCAR-4
  GI50: 11.6 µM (inactive)
UO-31
  GI50: 13.9 µM (inactive)
UACC-257
  GI50: 17.9 µM (inactive)
SNB-19
  GI50: 18.1 µM (inactive)
K562
  GI50: 34.8 µM (inactive)

## CCCC(=O)OC[n+]1cccc(-c2c(COC(=O)NC(C)C)c(COC(=O)NC(C)C)c3n2CCC3)c1
NCI-H23
  GI50: 34.8 µM (inactive)
SF-268
  GI50: 32 µM (inactive)
NCI-H226
  GI50: > 91 µM (inactive)
MDA-N
  GI50: > 100 µM (inactive)
MDA-MB-231
  GI50: > 74.8 µM (inactive)
MDA-MB-435
  GI50: 98.2 µM (inactive)
HCC 2998
  GI50: > 100 µM (inactive)
SR
  GI50: 5.75 µM (inactive)
LOX IMVI
  GI50: 35.2 µM (inactive)
NCI/ADR-RES
  GI50: 61.8 µM (inactive)
SNB-75
  GI50: 71.3 µM (inactive)
HL-60
  GI50: 15.7 µM (inactive)
OVCAR-5
  GI50: 97.7 µM (inactive)
SF-539
  GI50: 28.8 µM (inactive)
CAKI-1
  GI50: 8.51 µM (inactive)
OVCAR-4
  GI50: 58.6 µM (inactive)
UO-31
  GI50: 38.7 µM (inactive)
UACC-257
  GI50: > 100 µM (inactive)
SNB-19
  GI50: > 100 µM (inactive)
K562
  GI50: 50.8 µM (inactive)

## Cc1[nH]c2[nH]c(=S)nc(NC(N)=S)c2c1Cc1ccccc1
NCI-H23
  GI50: 29.7 µM (inactive)
SF-268
  GI50: 43.8 µM (inactive)
NCI-H226
  GI50: > 100 µM (inactive)
MDA-N
  GI50: 22.7 µM (inactive)
MDA-MB-231
  GI50: 28.1 µM (inactive)
MDA-MB-435
  GI50: 17.3 µM (inactive)
SR
  GI50: 11.5 µM (inactive)
LOX IMVI
  GI50: 19.6 µM (inactive)
NCI/ADR-RES
  GI50: 48.8 µM (inactive)
SNB-75
  GI50: 31.9 µM (inactive)
HL-60
  GI50: 13.6 µM (inactive)
OVCAR-5
  GI50: > 100 µM (inactive)
SF-539
  GI50: 37.2 µM (inactive)
CAKI-1
  GI50: 98.6 µM (inactive)
UO-31
  GI50: 22.8 µM (inactive)
UACC-257
  GI50: 54.3 µM (inactive)
SNB-19
  GI50: 97.9 µM (inactive)
K562
  GI50: 25.9 µM (inactive)

## COc1ccc(/C=C2/C(C)=NN(c3cccc(Cl)c3)/C2=N/c2nc3ccccc3s2)cc1
NCI-H23
  GI50: 16.9 µM (inactive)
SF-268
  GI50: 25.6 µM (inactive)
NCI-H226
  GI50: 22.3 µM (inactive)
MDA-N
  GI50: 21.7 µM (inactive)
MDA-MB-231
  GI50: 24.7 µM (inactive)
MDA-MB-435
  GI50: 33.7 µM (inactive)
HCC 2998
  GI50: 18.3 µM (inactive)
SR
  GI50: 23.9 µM (inactive)
LOX IMVI
  GI50: 18 µM (inactive)
NCI/ADR-RES
  GI50: 22.9 µM (inactive)
SNB-75
  GI50: 26.8 µM (inactive)
HL-60
  GI50: 20.7 µM (inactive)
OVCAR-5
  GI50: 25.1 µM (inactive)
SF-539
  GI50: 26.7 µM (inactive)
CAKI-1
  GI50: 28.4 µM (inactive)
OVCAR-4
  GI50: 37.4 µM (inactive)
UO-31
  GI50: 19.3 µM (inactive)
UACC-257
  GI50: 22.6 µM (inactive)
K562
  GI50: 26.7 µM (inactive)

## O=[N+]([O-])c1ccc(CSc2nncc3[nH]cnc23)cc1
NCI-H23
  GI50: > 100 µM (inactive)
NCI-H226
  GI50: > 100 µM (inactive)
MDA-N
  GI50: > 100 µM (inactive)
MDA-MB-231
  GI50: > 100 µM (inactive)
MDA-MB-435
  GI50: 93.1 µM (inactive)
HCC 2998
  GI50: > 100 µM (inactive)
SR
  GI50: > 100 µM (inactive)
LOX IMVI
  GI50: > 100 µM (inactive)
NCI/ADR-RES
  GI50: > 100 µM (inactive)
SNB-75
  GI50: 80.2 µM (inactive)
HL-60
  GI50: > 100 µM (inactive)
OVCAR-5
  GI50: > 100 µM (inactive)
SF-539
  GI50: > 100 µM (inactive)
CAKI-1
  GI50: > 100 µM (inactive)
OVCAR-4
  GI50: > 100 µM (inactive)
UO-31
  GI50: 33.4 µM (inactive)
UACC-257
  GI50: > 100 µM (inactive)
K562
  GI50: 84.9 µM (inactive)

## CCCCCCCCCCCCCC[C@@H](O)[C@H]1CC[C@H]([C@H]2CC[C@H]([C@H](O)CCCCCC[C@@H](O)CC3=C[C@H](C)OC3=O)O2)O1
NCI-H23
  GI50: 1.2 µM (inactive)
SF-268
  GI50: > 25 µM (inactive)
NCI-H226
  GI50: > 25 µM (inactive)
MDA-N
  GI50: 2.03 µM (inactive)
MDA-MB-231
  GI50: > 25 µM (inactive)
MDA-MB-435
  GI50: > 25 µM (inactive)
HCC 2998
  GI50: > 25 µM (inactive)
SR
  GI50: 1.03 µM (active)
LOX IMVI
  GI50: 1.22 µM (inactive)
NCI/ADR-RES
  GI50: > 20.1 µM (inactive)
SNB-75
  GI50: > 25 µM (inactive)
HL-60
  GI50: 2.22 µM (inactive)
OVCAR-5
  GI50: > 25 µM (inactive)
SF-539
  GI50: > 13.8 µM (inactive)
CAKI-1
  GI50: > 25 µM (inactive)
OVCAR-4
  GI50: > 25 µM (inactive)
UO-31
  GI50: > 25 µM (inactive)
UACC-257
  GI50: 3.65 µM (inactive)
SNB-19
  GI50: > 25 µM (inactive)
